Strand notation (5' to 3'): a small letter for the sugar, then the base; units joined by * are phosphorothioate-linked, units joined directly phosphodiester-linked; [ ] holds rarer units or linkages, { } end groups; capitals alone tell only the bases. k = constrained ethyl (cEt); [5mC] = 5-methylcytosine; d = 2'-deoxy (DNA)
Assays:
Yap1 mRNA [1] = assay: Dose-dependent inhibition of human Yap1 in A-431 cells (Example 8, 10,000 cells per well, RTS4814); type: cell-based; conditions: A-431 cells; for IC50: Yap1 mRNA
Outline: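 Yap1 mRNA, normalized to RIBOGREEN total RNA and expressed as % untreated control, was read with RTS4814 about 48 h after free-uptake oligonucleotide treatment of A-431 cells at 10,000 cells/well. IC50 derived by linear regression of log/linear data.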

Yap1 mRNA [2] = assay: Antisense inhibition of human Yap1 in A-431 cells by cEt gapmers, single dose (Example 4, RTS4814); type: cell-based; conditions: Yap1 mRNA remaining as percent of untreated control, 3-10-3 cEt gapmers, A-431 cells
Outline: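 Values are % UTC: Yap1 mRNA by quantitative RT-PCR, normalized to RIBOGREEN total RNA. Cells were exposed ~48 h to 2,000 nM oligonucleotide without transfection. Oligonucleotides were 16-nucleoside gapmers with three cEt nucleosides per wing, ten-deoxy gap, P=S linkages throughout.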

Row | Substance | % UTC (Yap1 mRNA) (Yap1 mRNA [1]; 31.3 nM) [% UTC] | % UTC (Yap1 mRNA) (Yap1 mRNA [1]; 125.0 nM) [% UTC] | % UTC (Yap1 mRNA) (Yap1 mRNA [1]; 500.0 nM) [% UTC] | % UTC (Yap1 mRNA) (Yap1 mRNA [1]; 2000.00 nM) [% UTC] | IC50 (Yap1 mRNA [1]) [nM] | YAP1 (% UTC) (Yap1 mRNA [2]; Table 36) | YAP1 (% UTC) (Yap1 mRNA [2]; Table 37)
1 | 1075222 (kG*kT*kA*dT*dT*dT*dG*dG*dA*d[5mC]*dA*dA*d[5mC]*kT*k[5mC]*kT; antisense) [compound 1075222] | 75 | 30 | 8 | 5 | 100 | 3 | –
2 | 1075766 (kG*kG*kA*dG*dA*dA*d[5mC]*dA*d[5mC]*dA*dA*dG*dA*kG*kG*k[5mC]; antisense) [compound 1075766] | 56 | 21 | 11 | 8 | < 20 | 5 | –
3 | 1075990 (k[5mC]*kG*kT*dT*dA*dT*dT*dA*dT*dG*d[5mC]*dA*dG*k[5mC]*kA*kA; antisense) [compound 1075990] | 28 | 6 | 3 | 3 | < 20 | 1 | –
4 | 1076022 (kT*kA*kA*dT*dT*dA*dG*dA*dT*dG*d[5mC]*dT*dG*kA*k[5mC]*kA; antisense) [compound 1076022] | 63 | 28 | 8 | 5 | 40 | 2 | –
5 | 1076023 (kA*kT*kA*dA*dT*dT*dA*dG*dA*dT*dG*d[5mC]*dT*kG*kA*k[5mC]; antisense) [compound 1076023] | 60 | 18 | 5 | 3 | < 20 | – | 4
6 | 1076119 (kG*kT*kT*dA*dA*dA*dT*dA*dT*dG*dA*dA*dT*kT*kG*kG; antisense) [compound 1076119] | 82 | 35 | 12 | 6 | 100 | – | 7
7 | 1076183 (k[5mC]*kT*kT*d[5mC]*dT*dA*dT*dA*dA*dT*dT*dA*dG*k[5mC]*k[5mC]*kA; antisense) [compound 1076183] | 65 | 22 | 9 | 6 | 40 | – | 7
8 | 1076406 (antisense kA*kT*kT*dA*dT*dT*dT*dA*dA*dG*dA*d[5mC]*d[5mC]*kT*kG*kG) [compound 1076406] | 51 | 20 | 9 | 7 | < 20 | 4 | –
9 | 1076439 (k[5mC]*kT*kT*dA*dT*dA*dT*dG*dG*dT*dT*dT*dT*kG*kT*kG) [compound 1076439] | 48 | 13 | 6 | 5 | < 20 | – | 4
10 | 1076471 (k[5mC]*kA*kT*dT*dA*dG*dA*d[5mC]*dT*dA*dG*dG*d[5mC]*kT*kT*kT; antisense) [compound 1076471] | 64 | 29 | 9 | 5 | 50 | – | 5
11 | 1076534 (kA*k[5mC]*kT*dA*dT*dA*dA*dA*dG*d[5mC]*dA*dA*dT*kG*k[5mC]*kG; antisense) [compound 1076534] | 88 | 48 | 20 | 10 | 200 | 4 | –

Source: patent US11214803B2, “Modulators of YAP1 expression” (Ionis Pharmaceuticals, Inc., priority 2019, dated 2022)
